The values below come from US12146134B2, “Microfluidic devices and methods of use in the formation and control of nanoreactors” (Bio-Rad Laboratories, Inc., priority 2006, dated 2024).

{Fluorescein} = fluorescein label; {Biotin} = biotin label

One data set concerns Oligonucleotide 102. Description: measurement of DNA hybridization using fluorescence polarization (FP) on the microfluidic device. Format: binding. To be noted: addition of oligonucleotide to the fluorescein-labeled 102. The text has this: (A) FP can be used to measure the binding of 2 DNA molecules on the microfluidic device. (B) Oligonucleotide 102 is complement to both 101 and 103. […] Oligonucleotides; #101:[NT] ID NO: 1); #102: [NT] ID NO: 2); #103: [NT] NO: 3).
A general note: In fluorescence polarisation assays a small probe gives low polarisation when free and higher when bound to something large.

For another data set, the target named is Steptaviden (Streptomyces avidinii, UniProt P22629). The data set can be described thus: fluorescence polarization measurements in droplets inside the microfluidic device (biotin/streptavidin binding). Conditions: droplets 65 to 75 um, 10 mM Borate pH 9, data normalized so P(Fluorescein)=0.0. The text has this:
In addition to molecular beacons and Taqman, the devices of the present invention can be used to cany out fluorescence polarization as described herein. Most SNP assays can be adapted for both mini-sequencing and gene expression analysis. A series of fluorescence polarization measurements have been made inside a microfluidic device according to the present invention while looking at droplets containing Fluorescein, Fluorescein bound to biotin, and Fluorescein bound to biotin+Steptaviden. The fluorescence signal was split into two orthogonal polarizations: one parallel to the laser excitation polarization, and one perpendicular to the polarization. These signal were collected and analyzed to determine the change in polarization of the fluorescence for each of these binding conditions.
The Polarization is calculated from:
[formula] Where V=fluorescence signal polarized parallel to laser excitation polarization, and H=fluorescence signal polarized perpendicular.
The fluorescence station was modified to include cleanup polarizer for the laser and a polarizing beamsplitter with cleanup polarizers for collection. The two resulting fluorescence channels collect light with orthogonal polarizations (“Vertical” is parallel to the laser polarization, “Horizontal” is perpendicular to the laser polarization). […]

Sequence of Steptaviden (P22629 25-183): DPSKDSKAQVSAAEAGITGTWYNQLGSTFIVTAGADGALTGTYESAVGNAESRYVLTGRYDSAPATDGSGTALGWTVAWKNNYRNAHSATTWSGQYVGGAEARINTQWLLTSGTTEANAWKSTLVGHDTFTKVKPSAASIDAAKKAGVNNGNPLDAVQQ

As for “103: 5′ Fluorescein-labeled oligonucleotide, SEQ ID NO: 3 (DNA CTAAACTCCTGATTTATGCTGCATCCATTTTGC; DNA, 5' {Fluorescein}, backbone not given here) [compound 103]”, the “shift of mP value of labeled 102, indicative of binding” value in the data set on Oligonucleotide 102 was “shifts the mP value”.

As for “Biotinylated Fluorescein [Biotinalated Fluorescein]”, the “Polarization (mean of histogram grouping)” value at Steptaviden came out at 18.4 mP.

B1: 101: 5′ Biotin-labeled oligonucleotide, SEQ ID NO: 1 (nucleic acid)
DNA: ATCCGCCCCAGCAGCTGCCAGGCACAGCCCCTAAACTCCTGATTTATGCTGCATCCATTTTGC
modifications: DNA, 5' {Biotin}, backbone not given here
In the case of B1, in the data set on Oligonucleotide 102, the “shift of mP value of labeled 102, indicative of binding” value is listed as “shifts the mP value”.
